In patent US20160310607A1, “CELL TRANSPORT” (CUPID PEPTIDE COMPANY LIMITED, priority 2013, published 2016):
“Also recorded” adds a separate entry of the source. No end group written: not given here.

Key:
[1] = test system: Dictyostelium discoideum amoeba cells; assay: Permeation of FITC-labelled peptides into cultured Dictyostelium cells (fluorescence microscopy); format: cell-based; details: FITC-labelled peptide, 10 micromolar, 1 hour
Protocol: Peptides were labelled with Fluorescein isothiocyanate (FITC) using a FITC labeling kit as per instructions (Pierce, UK). When added to cell cultures the labeled peptides were visualized using a fluorescent microscope by exciting the FITC with a 488 nm spectral line, argon-ion laser (Excitation wavelength of 494 nm and an Emission wavelength of 518 nm).
AX2 wild type Dictyostelium cells were grown on SM agar plates seeded with Aerobacter aerogenes bacteria (also known as Klebsiella aerogenes) as a food source.
Cupid A ([…]) and Cupid B ([…]) were chemically synthesized labelled with FITC at the amino terminal. The peptides were added to cultured eukaryotic cells of Dictyostelium discoideum amoeba for varying amounts of time up to 2 hours. Cells were then washed and prepared for examination under a fluorescent microscope (FIG. 1). The time courses of permeation were compared to the class 3 CPP, the Antennapedia peptide, pANT which was also labelled with FITC in chemical synthesis (FIG. 2).

[2] = test system: Dictyostelium cAMP-dependent Protein Kinase (DdPKA); assay: PKA-dependent aggregation of starved Dictyostelium cultures; format: cell-based, Dictyostelium discoideum; details: 10 micromolar peptide
Protocol: FIG. 6. Cupid can transport small molecule cargo into cells. Starved Dictyostelium cultures were treated with no peptide (A), cupid B peptide (B), PKI peptide (C) and Cupid B-PKI peptide (D) and analysed for aggregation.
Upon starvation Dictyostelium initiates a developmental program leading to the aggregation of free-living amoebae. Genetic research has uncovered the crucial role that cyclic adenosine monophosphate (cAMP) plays in orchestrating as an extracellular chemoattractant in the initial aggregation process through Dictyostelium cAMP-dependent Protein Kinase (DdPKA). DdPKA can be inhibited by PKI, a 20 amino acid peptide sequence derived from an inhibitor of PKA, by PKI binding directly to the catalytic unit of PKA.
By creating a Cupid B-PKI fusion protein we aimed to establish that it prevents starving Dictyostelium cells from aggregating in vivo.

| Sequence | cell permeation (fluorescence microscopy) [1] | effect on aggregation of starved Dictyostelium cultures [2] | effect on aggregation of starved Dictyostelium cultures ([2]; listed as Cupid-PKI) |
| --- | --- | --- | --- |
| HHHHHHRRVQIWFQNKRAKVKRIDTTYADRASGRTGRRNAIHD (also: FITC label, site not given here) [Cupid B-PKI, Cupid B-PKI fusion protein with 6x Histidine, made recombinantly in E. coli; FITC-labelled for microscopy] | cell permeable | completely attenuating | failed to aggregate |
| RRVQIWFQNKRAKVKR [Cupid B, cell penetrating peptide from the genome of Dictyostelium discoideum] | – | neither the Cupid B peptide nor the PKI peptide alone have any effect on aggregation; also recorded: cells aggregated into tight masses | – |
| TTYADRASGRTGRRNAND [PKI, reference compound] | – | neither the Cupid B peptide nor the PKI peptide alone have any effect on aggregation; also recorded: cells aggregated into tight masses | – |
